Data from patent US20130109738A1, “Control of Cardiac Growth, Differentiation and Hypertrophy” (The Board of Trustees of the Leland Stanford Junior …, priority 2010, published 2013).
Entries after “also recorded” stand apart in the source; their conditions may differ.

Columns and labels:
[1] = system: myocardial proliferation in cultured embryos; experiment: Myocardial BrdU incorporation in whole embryo culture; parameters: species or system mouse
Description: Quantitative analysis of myocardial development H&E-stained 7 μm paraffin sections were used for the morphometric analysis of the compact and trabecular myocardium. The following parameters were measured: thickness of compact 4 myocardium, number of trabeculi directly connected to compact myocardium, and trabecular area normalized to ventricular size. BrdU-stained sections were used to count the number of BrdU-positive cells per area of myocardium or per number of cells in the endocardium or endocardial cushions. All quantification and scale measurement were performed using NIS-Elements software (Nikon).
(§1) Whole embryo culture Embryos ([…]) with intact yolk sacs were isolated and incubated in 1 ml culture medium containing 97% rat serum (Harlan Biosciences, Cincinnati, Ohio), 2 mg glucose, 100 U penicillin G and 100 μg streptomycin that was rotated slowly at […] and gassed periodically (every 8 hours) with 20% oxygen, 5% carbon dioxide, 75% nitrogen from E8.75 to E9.5, and 70% oxygen, 5% carbon dioxide and 25% nitrogen from E9.5 to E10.5. BMP10 (10 nM, RD Systems, Minneapolis, Minn.), BSA (125 ng/ml), TSA (100-500 nM, Sigma-Aldrich, St. Louis, Mo.), PJ-34 (20 uM, Alexis Corporation, San Diego)), BrdU (30_g/mL, Simga-Aldrich) or DMSO was added directly to the culture medium or during the last six hours for BrdU. Embryos were harvested 36-48 hours later for analysis.
Proliferation and apoptosis analysis. Pregnant mice were injected with BrdU (Sigma, 100 μg/ml, intraperitoneal injection) for 6 hours prior to embryo isolation at E10.5 or E11.5. Incorporated BrdU was stained in the tissue-section of the heart according to manufacturer's protocol (Zymed Laboratories, South San Francisco, Calif.). Apoptosis of embryos were analyzed by TUNEL staining using a kit (Roche, Applied Science, Indianapolis, Ind.).

[2] = system: α-MHC and β-MHC expression in cardiac ventricles; experiment: Quantitative RT-PCR of ventricular α-MHC and β-MHC in cultured whole embryos; parameters: species or system mouse
Description: as §1
Quantitative RT-PCR analysis. Quantitative RT-PCR analyses were performed as described previously to examine gene expressions in the cardiac ventricles of E10.5/E11.5 embryonic hearts and adult hearts. The following primer sequences were used: Murine MHO, 5′ primer […], 3′ primer […]. Murine β-MHC, 5″ primer […], 3′ primer […]. Murine HPRT, 5′ primer GCTGGTGAAAAGGACCTCT, 3′ primer […]. Murine Brg1, 5″ primer […], 3′ primer […]. Human H3F3A, 5′ primer […], 3′ primer […]. Human Brg1, 5′ primer […], 3′ primer […]. Human α-MHC and β-MHC were by Taqman probes (Applied Biosciences, Foster City, Calif.. RT-PCR reactions were performed using SYBR green master mix (BioRad, Hercules, Calif.) or Taqman reagents (Applied Biosciences), and the primer sets were tested to be quantitative. Threshold cycles and melting curve measurements were performed with software.

α-MHC promoter = experiment: Luciferase reporter assay of α-MHC promoter activity in SW13 cells; format: cell-based, human
Description: (§2) Cloning and Luciferase Reporter Assay Full length as well as serially truncated versions of intergenic α-MHC and β-MHC promoters were cloned into pREP4-Luc reporter plasmid, as detailed in the supplementary method. The constructs were transfected into SW13 cells with lipofectamine 2000 (Invitrogen, Calif.) along with pREP7-RL as a transfection efficiency control and Brg1 expression vector with the appropriate empty vector control. Luciferase activity was measured and normalized to that of Renilla luciferase construct using the Dual-Luciferase Reporter System (Promega, Wis.).
(§3) Cloning and Luciferase Reporter Assay Specific truncations for the reporter constructs are as follows: for α-MHC promoter, full length promoter spans from 4243 by upstream and 192 by downstream of the transcription start site (−4243, +192), serially truncated versions span (−2537, +192), (−1802, +192), and (−462, +192). Likewise, β-MHC promoters span (−3561, +222), (−1770, +222), and (−835, +222).

β-MHC promoter = experiment: Luciferase reporter assay of β-MHC promoter activity in SW13 cells; format: cell-based, human
Description: as §2, §3

embryos = experiment: Gross morphology of cultured whole embryos; parameters: species or system mouse; details: whole embryos cultured from E9 to E10, compared to littermates treated with DMSO
Description: as §1

[3] = whole embryos cultured from E9 to E10, vs DMSO

CC(/C=C/C(=O)NO)=C\[C@@H](C)C(=O)c1ccc(N(C)C)cc1 [TSA, trichostatin A]
myocardial proliferation (BrdU incorporation) ([1]; wildtype embryos cultured from E8.75 to E10.5, BrdU last six hours, vs DMSO): normal | increase in α/β MHC ratio [2, 3]: 3.5 folds | α-MHC expression [2, 3]: significantly up-regulated | β-MHC expression [2, 3]: down-regulated | effect on BAF-mediated repression of α-MHC reporter (α-MHC promoter; SW13 cells transfected with Brg1 expression vector): reversed the BAF-mediated repression of α-MHC | effect on Brg1-induced β-MHC promoter activation (β-MHC promoter; SW13 cells transfected with Brg1-expressing plasmid): no significant impact | reduction of β-MHC promoter activity (β-MHC promoter; SW13 cells, basal activity without Brg1): 55% | gross morphology of treated embryos (embryos): grossly normal

CN(C)CC(=O)Nc1ccc2[nH]c(=O)c3ccccc3c2c1 [PJ-34]
MHC switch in cultured embryos ([2]; embryos cultured from E9 to E10, PJ-34 20 uM): exhibited α- and β-MHC switches; also recorded: causes MHC switch from β-MHC to α-MHC | effect on Brg1-mediated α-MHC repression (α-MHC promoter; SW13 cells, PARP1 inhibition): reduced | effect on Brg1-mediated β-MHC activation (β-MHC promoter; SW13 cells, PARP1 inhibition): reduced

B1: BMP10: BMP10 protein (10 nM, RD Systems) required for the proliferation of myocardial cells (protein, UniProt O95393 317-424, looked up)
Bone morphogenetic protein 10: NAKGNYCKRTPLYIDFKEIGWDSWIIAPPGYEAYECRGVCNYPLAEHLTPTKHAIIQALVHLKNSQKASKACCVPTKLEPISILYLDKGVVTYKFKYEGMAVSECGCR
increase of BrdU incorporation ([1]; Sm22αCre;Brg1F/F embryos cultured from E8.75 for 42 to 48 hours, BMP10 10 nM): 2.6 folds | BrdU incorporation restored to (relative to control embryos) ([1]; Sm22αCre;Brg1F/F embryos cultured from E8.75 for 42 to 48 hours, BMP10 10 nM, untreated mutant 33+/−12%): 85+/−10% | effect on premature MHC differentiation (α-MHC over-, β-MHC under-expression) ([2]; cultured Sm22αCre;Brg1F/F embryos, BMP10 vs BSA): failed to reverse the premature MHC differentiation
